Results reported in patent US6194465A, “Benzamide therapeutics for the treatment of inflammatory bowel disease” (priority 1999, dated 2001).

Test system: human brain cell aggregates
Test: TNF-α induced apoptosis in human brain cell aggregates
Type: cell-based
Details: compound 1 hour prior to TNF-α, 48 h, read-out: lowest concentration shown to protect against TNF-α induced apoptosis
Description: This test is used to evaluate the potential of Compound A to prevent TNF-α induced apoptosis.
Compound A was evaluated in an in vitro model of TNF-α induced toxicity (see Pulliam et al. J. Neurosci. Res. 21:521-530 (1998)). In this model, human brain cell aggregates from fetal tissue were treated with TNF-α which caused an apoptotic cell death. Brain cell aggregates prepared from 1 brain were incubated for 10-12 days before experimentation. Aggregates were weighed out (100 mg/flask) and aliquoted into 10 mL flasks. TNF-α was used at a concentration of 1 ng. Compound A was added 1 hour prior to the TNF-α. Experiments included untreated brain aggregates, TNF-α-treated brain aggregates, TNF-α-+test compound treated aggregates and test compound treated aggregates. After TNF-α was added, aggregates were incubated for an additional 48 h. After this time, brain aggregates were centrifuged for 5 min at 500 rpm. The supernatant was removed and the pellet was lysed for determination of programmed cell death. (Boeringer Mannheim Cell Death Kit ELISA).

CC(=O)Nc1ccc(C(=O)NC(C)(C)C)cc1 [Compound A, N-tert-butyl-4-acetamidobenzamide] was tested. Which minimal effective concentration did it give?
The minimal effective concentration was 0.01 µM.
